Results as given in patent US11826399B2, “Chlorotoxin agents and uses thereof” (Eisai Inc., priority 2017, dated 2023).
Values joined by “and” are separate entries in the source; they are usually repeats but may differ in a detail not shown here. Equal entries are not always repeated.

Assay: Plasma and tissue distribution of Cryptophycin Payload and Cryptophycin Metabolite 1 after Cryptophycin Payload alone or with CTX in PC-3 xenograft nude mice (LC-MS/MS)
Assay type: in vivo, mouse
Description: For the present experiment, materials, methods, drugs and model were as described in Example 21. […] Following intravenous administration, whole blood samples were collected at predetermined time points via cardiac puncture (n=3 mice per time point). Blood samples were centrifuged to obtain plasma and subsequently stored at […] or lower pending analysis. Additionally, at each time point, kidney, liver, small intestine, brain, heart, and tumor were harvested by removing entire specimen from surrounding tissues (only a portion of liver and small intestine were removed). After removal, tissues were rinsed with normal saline solution (contents of small intestine were emptied) and blotted dry with clean adsorptive tissue. Once dried, the specimens were weighed and stored at −20° C. or lower pending analysis. […] Pharmacokinetic (PK) parameters were calculated. Mean plasma and tissue concentrations were used to calculate mean PK parameters. Skin and skeletal muscle which were not assessed due to difficulty of homogenization.
Vehicle for single dose group was 10% ethanol, 5% Tween 80, 85% saline. Vehicle for combination treatment was 5% ethanol, 2.5% Tween 80, 92.5% saline.

[1] = Brain, Payload 0.4 mg/kg + CTX 16 mg/kg IV
[2] = Brain, Payload 0.4 mg/kg IV alone
[3] = Heart, Payload 0.4 mg/kg + CTX 16 mg/kg IV
[4] = Heart, Payload 0.4 mg/kg IV alone
[5] = Kidney, Payload 0.4 mg/kg + CTX 16 mg/kg IV
[6] = Kidney, Payload 0.4 mg/kg IV alone
[7] = Liver, Payload 0.4 mg/kg + CTX 16 mg/kg IV
[8] = Liver, Payload 0.4 mg/kg IV alone
[9] = Payload 0.4 mg/kg + CTX 16 mg/kg IV, 0.083 h
[10] = Payload 0.4 mg/kg + CTX 16 mg/kg IV, 0.5 h
[11] = Payload 0.4 mg/kg + CTX 16 mg/kg IV, 1 h
[12] = Payload 0.4 mg/kg + CTX 16 mg/kg IV, 2 h
[13] = Payload 0.4 mg/kg + CTX 16 mg/kg IV, 6 h
[14] = Payload 0.4 mg/kg + CTX 16 mg/kg IV, 24 h
[15] = Payload 0.4 mg/kg IV alone, 0.083 h
[16] = Payload 0.4 mg/kg IV alone, 0.5 h
[17] = Payload 0.4 mg/kg IV alone, 1 h
[18] = Payload 0.4 mg/kg IV alone, 2 h
[19] = Payload 0.4 mg/kg IV alone, 6 h
[20] = Payload 0.4 mg/kg IV alone, 24 h
[21] = Plasma, Payload 0.4 mg/kg + CTX 16 mg/kg IV
[22] = Plasma, Payload 0.4 mg/kg IV alone
[23] = Small Intestine, Payload 0.4 mg/kg + CTX 16 mg/kg IV
[24] = Small Intestine, Payload 0.4 mg/kg IV alone
[25] = Tumor, Payload 0.4 mg/kg + CTX 16 mg/kg IV
[26] = Tumor, Payload 0.4 mg/kg IV alone

## CCCCNC(=O)Cc1ccccc1SSC(C)(C)CCN1CCN(Cc2ccc(C3OC3C(C)C3CC=CC(=O)NC(Cc4ccc(OC)c(Cl)c4)C(=O)NCC(C)(C)C(=O)NC(CC(C)C)C(=O)O3)cc2)CC1 (stereo not drawn) [Cryptophycin Payload]
[1]
  AUC(0-t) of Cryptophycin Payload: 3.69 ng·h/g
  tmax of Cryptophycin Payload: 4.8 min
Brain, Payload 0.4 mg/kg + CTX 16 mg/kg IV, AUC0-2 h tissue/AUC0-2 h plasma
  TPI of Cryptophycin Payload: 0.0315 mL/g and 0.0315^d mL/g
[2]
  AUC(0-inf) of Cryptophycin Payload: 3.57 ng·h/g
  AUC(0-t) of Cryptophycin Payload: 3.02 ng·h/g
  t1/2 of Cryptophycin Payload: 56.5 min
  tmax of Cryptophycin Payload: 4.98 min and 4.8 min
Brain, Payload 0.4 mg/kg IV alone, AUC0-2 h tissue/AUC0-2 h plasma
  TPI of Cryptophycin Payload: 0.0208 mL/g and 0.0208^d mL/g
[3]
  AUC(0-inf) of Cryptophycin Payload: 62.0 ng·h/g
  AUC(0-t) of Cryptophycin Payload: 59.2 ng·h/g
  t1/2 of Cryptophycin Payload: 86.4 min
  tmax of Cryptophycin Payload: 4.8 min
Heart, Payload 0.4 mg/kg + CTX 16 mg/kg IV, AUC0-inf tissue/AUC0-inf plasma
  TPI of Cryptophycin Payload: 0.481 mL/g
[4]
  AUC(0-inf) of Cryptophycin Payload: 38.9 ng·h/g
  AUC(0-t) of Cryptophycin Payload: 36.8 ng·h/g
  t1/2 of Cryptophycin Payload: 103 min
  tmax of Cryptophycin Payload: 4.98 min and 4.8 min
Heart, Payload 0.4 mg/kg IV alone, AUC0-inf tissue/AUC0-inf plasma
  TPI of Cryptophycin Payload: 0.253 mL/g
[5]
  AUC(0-inf) of Cryptophycin Payload: 1230 ng·h/g
  AUC(0-t) of Cryptophycin Payload: 1210 ng·h/g
  t1/2 of Cryptophycin Payload: 251 min
  tmax of Cryptophycin Payload: 30 min
Kidney, Payload 0.4 mg/kg + CTX 16 mg/kg IV, AUC0-inf tissue/AUC0-inf plasma
  TPI of Cryptophycin Payload: 9.53 mL/g
[6]
  AUC(0-inf) of Cryptophycin Payload: 826 ng·h/g
  AUC(0-t) of Cryptophycin Payload: 804 ng·h/g
  t1/2 of Cryptophycin Payload: 282 min
  tmax of Cryptophycin Payload: 4.98 min and 4.8 min
Kidney, Payload 0.4 mg/kg IV alone, AUC0-inf tissue/AUC0-inf plasma
  TPI of Cryptophycin Payload: 5.36 mL/g
[7]
  AUC(0-t) of Cryptophycin Payload: 15.1 ng·h/g
  tmax of Cryptophycin Payload: 60 min
Liver, Payload 0.4 mg/kg + CTX 16 mg/kg IV, AUC0-6 h tissue/AUC0-6 h plasma
  TPI of Cryptophycin Payload: 0.118 mL/g and 0.118^c mL/g
[8]
  AUC(0-t) of Cryptophycin Payload: 9.65 ng·h/g
  tmax of Cryptophycin Payload: 4.98 min and 4.8 min
Liver, Payload 0.4 mg/kg IV alone, AUC0-6 h tissue/AUC0-6 h plasma
  TPI of Cryptophycin Payload: 0.0631 mL/g and 0.0631^c mL/g
[9]
  Concentration of Cryptophycin Payload, Brain, Mean: 3.97 ng/g
  Concentration of Cryptophycin Payload, Heart, Mean: 47.3 ng/g
  Concentration of Cryptophycin Payload, Kidney, Mean: 389 ng/g
  Concentration of Cryptophycin Payload, Liver, Mean: 3.89 ng/g
  Concentration of Cryptophycin Payload, Plasma, Mean: 268 ng/mL
  Concentration of Cryptophycin Payload, Small Intestine, Mean: 19.8 ng/g
  Concentration of Cryptophycin Payload, Tumor, Mean: 12.5 ng/g
[10]
  Concentration of Cryptophycin Payload, Brain, Mean: 2.09 ng/g
  Concentration of Cryptophycin Payload, Heart, Mean: 41.3 ng/g
  Concentration of Cryptophycin Payload, Kidney, Mean: 411 ng/g
  Concentration of Cryptophycin Payload, Liver, Mean: 7.13 ng/g
  Concentration of Cryptophycin Payload, Plasma, Mean: 37.9 ng/mL
  Concentration of Cryptophycin Payload, Small Intestine, Mean: 13.4 ng/g
  Concentration of Cryptophycin Payload, Tumor, Mean: 10.3 ng/g
[11]
  Concentration of Cryptophycin Payload, Brain, Mean: 2.07 ng/g
  Concentration of Cryptophycin Payload, Heart, Mean: 18.7 ng/g
  Concentration of Cryptophycin Payload, Kidney, Mean: 317 ng/g
  Concentration of Cryptophycin Payload, Liver, Mean: 7.13 ng/g
  Concentration of Cryptophycin Payload, Plasma, Mean: 43.8 ng/mL
  Concentration of Cryptophycin Payload, Small Intestine, Mean: 15.5 ng/g
  Concentration of Cryptophycin Payload, Tumor, Mean: 9.46 ng/g
[12]
  Concentration of Cryptophycin Payload, Brain, Mean: 0.703 ng/g
  Concentration of Cryptophycin Payload, Heart, Mean: 6.37 ng/g
  Concentration of Cryptophycin Payload, Kidney, Mean: 179 ng/g
  Concentration of Cryptophycin Payload, Liver, Mean: 2.13 ng/g
  Concentration of Cryptophycin Payload, Plasma, Mean: 7.53 ng/mL
  Concentration of Cryptophycin Payload, Small Intestine, Mean: 5.66 ng/g
  Concentration of Cryptophycin Payload, Tumor, Mean: 10.1 ng/g
[13]
  Concentration of Cryptophycin Payload, Brain, Mean: BLQ
  Concentration of Cryptophycin Payload, Heart, Mean: 1.39 ng/g
  Concentration of Cryptophycin Payload, Kidney, Mean: 35.9 ng/g
  Concentration of Cryptophycin Payload, Liver, Mean: 0.632 ng/g
  Concentration of Cryptophycin Payload, Plasma, Mean: 0.537 ng/mL
  Concentration of Cryptophycin Payload, Small Intestine, Mean: 0.873 ng/g
  Concentration of Cryptophycin Payload, Tumor, Mean: 2.80 ng/g
[14]
  Concentration of Cryptophycin Payload, Brain, Mean: BLQ
  Concentration of Cryptophycin Payload, Heart, Mean: BLQ
  Concentration of Cryptophycin Payload, Kidney, Mean: 3.39 ng/g
  Concentration of Cryptophycin Payload, Liver, Mean: BLQ
  Concentration of Cryptophycin Payload, Plasma, Mean: BLQ
  Concentration of Cryptophycin Payload, Small Intestine, Mean: BLQ
  Concentration of Cryptophycin Payload, Tumor, Mean: BLQ
[15]
  Concentration of Cryptophycin Payload, Brain, Mean: 8.32 ng/g
  Concentration of Cryptophycin Payload, Heart, Mean: 63.2 ng/g
  Concentration of Cryptophycin Payload, Kidney, Mean: 533 ng/g
  Concentration of Cryptophycin Payload, Liver, Mean: 6.02 ng/g
  Concentration of Cryptophycin Payload, Plasma, Mean: 493 ng/mL
  Concentration of Cryptophycin Payload, Small Intestine, Mean: 53.3 ng/g
  Concentration of Cryptophycin Payload, Tumor, Mean: 11.6 ng/g
[16]
  Concentration of Cryptophycin Payload, Brain, Mean: 1.42 ng/g
  Concentration of Cryptophycin Payload, Heart, Mean: 18.9 ng/g
  Concentration of Cryptophycin Payload, Kidney, Mean: 320 ng/g
  Concentration of Cryptophycin Payload, Liver, Mean: 1.92 ng/g
  Concentration of Cryptophycin Payload, Plasma, Mean: 36.3 ng/mL
  Concentration of Cryptophycin Payload, Small Intestine, Mean: 13.6 ng/g
  Concentration of Cryptophycin Payload, Tumor, Mean: 4.11 ng/g
[17]
  Concentration of Cryptophycin Payload, Brain, Mean: 0.673 ng/g
  Concentration of Cryptophycin Payload, Heart, Mean: 7.91 ng/g
  Concentration of Cryptophycin Payload, Kidney, Mean: 158 ng/g
  Concentration of Cryptophycin Payload, Liver, Mean: 3.32 ng/g
  Concentration of Cryptophycin Payload, Plasma, Mean: 11.0 ng/mL
  Concentration of Cryptophycin Payload, Small Intestine, Mean: 6.55 ng/g
  Concentration of Cryptophycin Payload, Tumor, Mean: 2.14 ng/g
[18]
  Concentration of Cryptophycin Payload, Brain, Mean: 0.436 ng/g
  Concentration of Cryptophycin Payload, Heart, Mean: 3.28 ng/g
  Concentration of Cryptophycin Payload, Kidney, Mean: 93.8 ng/g
  Concentration of Cryptophycin Payload, Liver, Mean: 1.29 ng/g
  Concentration of Cryptophycin Payload, Plasma, Mean: 5.30 ng/mL
  Concentration of Cryptophycin Payload, Small Intestine, Mean: 6.41 ng/g
  Concentration of Cryptophycin Payload, Tumor, Mean: 2.41 ng/g
[19]
  Concentration of Cryptophycin Payload, Brain, Mean: BLQ
  Concentration of Cryptophycin Payload, Heart, Mean: 0.885 ng/g
  Concentration of Cryptophycin Payload, Kidney, Mean: 20.4 ng/g
  Concentration of Cryptophycin Payload, Liver, Mean: 0.948 ng/g
  Concentration of Cryptophycin Payload, Plasma, Mean: 0.492 ng/mL
  Concentration of Cryptophycin Payload, Small Intestine, Mean: 2.17 ng/g
  Concentration of Cryptophycin Payload, Tumor, Mean: 1.03 ng/g
[20]
  Concentration of Cryptophycin Payload, Brain, Mean: BLQ
  Concentration of Cryptophycin Payload, Heart, Mean: BLQ
  Concentration of Cryptophycin Payload, Kidney, Mean: 3.79 ng/g
  Concentration of Cryptophycin Payload, Liver, Mean: BLQ
  Concentration of Cryptophycin Payload, Plasma, Mean: BLQ
  Concentration of Cryptophycin Payload, Small Intestine, Mean: 2.31 ng/g
  Concentration of Cryptophycin Payload, Tumor, Mean: 0.335 ng/g
[21]
  AUC(0-inf) of Cryptophycin Payload: 129 ng·h/mL
  AUC(0-t) of Cryptophycin Payload: 128 ng·h/mL
  CL of Cryptophycin Payload: 51.8 mL/min/kg
  Vss of Cryptophycin Payload: 2.28 L/kg
  t1/2 of Cryptophycin Payload: 50.9 min
[22]
  AUC(0-inf) of Cryptophycin Payload: 154 ng·h/mL
  AUC(0-t) of Cryptophycin Payload: 153 ng·h/mL
  CL of Cryptophycin Payload: 43.3 mL/min/kg
  Vss of Cryptophycin Payload: 1.15 L/kg
  t1/2 of Cryptophycin Payload: 67.8 min
[23]
  AUC(0-inf) of Cryptophycin Payload: 36.4 ng·h/g
  AUC(0-t) of Cryptophycin Payload: 34.9 ng·h/g
  t1/2 of Cryptophycin Payload: 76.2 min
  tmax of Cryptophycin Payload: 4.8 min
Small Intestine, Payload 0.4 mg/kg + CTX 16 mg/kg IV, AUC0-inf tissue/AUC0-inf plasma
  TPI of Cryptophycin Payload: 0.282 mL/g
[24]
  AUC(0-t) of Cryptophycin Payload: 81.6 ng·h/g
  tmax of Cryptophycin Payload: 4.98 min and 4.8 min
Small Intestine, Payload 0.4 mg/kg IV alone, AUC0-6 h tissue/AUC0-6 h plasma
  TPI of Cryptophycin Payload: 0.268 mL/g and 0.268^c mL/g
[25]
  AUC(0-t) of Cryptophycin Payload: 42.7 ng·h/g
  tmax of Cryptophycin Payload: 4.8 min
Tumor, Payload 0.4 mg/kg + CTX 16 mg/kg IV, AUC0-6 h tissue/AUC0-6 h plasma
  TPI of Cryptophycin Payload: 0.334 mL/g and 0.334^c mL/g
[26]
  AUC(0-inf) of Cryptophycin Payload: 28.8 ng·h/g
  AUC(0-t) of Cryptophycin Payload: 24.9 ng·h/g
  t1/2 of Cryptophycin Payload: 506 min
  tmax of Cryptophycin Payload: 4.98 min and 4.8 min
Tumor, Payload 0.4 mg/kg IV alone, AUC0-inf tissue/AUC0-inf plasma
  TPI of Cryptophycin Payload: 0.187 mL/g
